{"source": "patent US12245562B2", "about": "“System for rapid, robust, and efficient in vitro mass propagation of Miscanthus x giganteus” (Delaware State University, priority 2017, dated 2025)", "test_system": "endophytic fungi", "assay": "control of endophyte growth in in vitro shoot culture media", "type": "cell-based", "conditions": "54 μM in DSIM culture medium of Miscanthus x giganteus; compared with vancomycin hydrochloride 0, 13.5, 27, 41.5 μM and tetracycline hydrochloride 20.8 or 52 μM", "note": "Structures can show the parent of a compound that is named as a salt."}
{"smiles": "CN[C@H](CC(C)C)C(=O)N[C@H]1C(=O)N[C@@H](CC(N)=O)C(=O)N[C@H]2C(=O)N[C@H]3C(=O)N[C@H](C(=O)N[C@H](C(=O)O)c4cc(O)cc(O)c4-c4cc3ccc4O)[C@H](O)c3ccc(c(Cl)c3)Oc3cc2cc(c3O[C@@H]2O[C@H](CO)[C@@H](O)[C@H](O)[C@H]2O[C@H]2C[C@](C)(N)[C@H](O)[C@H](C)O2)Oc2ccc(cc2Cl)[C@H]1O", "note": "[vancomycin, vancomycin hydrochloride]", "values": [{"measurement": "controlling the growth of endophytic fungi in the culture media", "result": "more effective"}]}
